Among the data in US8022099B2, “N-benzyl pyrrolidine derivatives” (Hoffmann-La Roche Inc., priority 2008, dated 2011) are Ki values, retold here.

The target of the assay is T1, human NK3 receptor (Homo sapiens, UniProt P29371).
T1 construct: expressed in transfected cells; host or cells: HEK293 cells (transient expression), membrane preparation
T1 sequence (P29371 1-465): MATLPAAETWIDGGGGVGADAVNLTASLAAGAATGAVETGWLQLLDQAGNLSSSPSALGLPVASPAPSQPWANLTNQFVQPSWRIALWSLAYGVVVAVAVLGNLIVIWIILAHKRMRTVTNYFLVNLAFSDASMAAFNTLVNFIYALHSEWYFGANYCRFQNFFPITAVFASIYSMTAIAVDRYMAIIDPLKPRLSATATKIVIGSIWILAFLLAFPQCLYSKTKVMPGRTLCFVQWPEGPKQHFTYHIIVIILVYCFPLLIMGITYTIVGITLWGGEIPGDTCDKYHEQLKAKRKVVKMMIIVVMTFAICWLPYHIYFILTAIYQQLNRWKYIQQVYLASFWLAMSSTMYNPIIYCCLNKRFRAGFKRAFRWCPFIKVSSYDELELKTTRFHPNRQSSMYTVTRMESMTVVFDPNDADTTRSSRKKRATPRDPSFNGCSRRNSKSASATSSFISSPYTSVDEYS
Put plainly: [3H]SR142801 competition binding assay. The settings on record: hNK3 receptor binding, [3H]SR142801, membranes from HEK293 cells transiently expressing recombinant human NK3 receptor. As to the method: [^3H]SR142801 Competition Binding Assay
hNK3 receptor binding experiment were performed using [^3H]SR142801 (Catalog No. TRK1035, specific activity: 74.0 Ci/mmol, Amersham, GE Healthcare UK limited, Buckinghamshire, UK) and membrane isolated from HEK293 cells transiently expressing recombinant human NK3 receptor. After thawing, the membrane homogenates were centrifuged at 48,000×g for 10 min at 4° C., the pellets were resuspended in the 50 mM Tris-HCl, 4 mM MnCl2, 1 μM phosphoramidon, 0.1% BSA binding buffer at pH 7.4 to a final assay concentration of 5 μg protein/well. For inhibition experiments, membranes were incubated with [^3H]SR142801 at a concentration equal to KD value of radioligand and 10 concentrations of the inhibitory compound (0.0003-10 μM) (in a total reaction volume of 500 μl) for 75 min at room temperature (RT). At the end of the incubation, membranes were filtered onto unitfilter (96-well white microplate with bonded GF/C filter preincubated 1 h in 0.3% PEI+0.3% BSA, Packard BioScience, Meriden, Conn.) with a Filtermate 196 harvester (Packard BioScience) and washed 4 times with ice-cold 50 mM Tris-HCl, pH 7.4 buffer. Nonspecific binding was measured in the presence of 10 μM SB222200 for both radioligands. The radioactivity on the filter was counted (5 min) on a Packard Top-count microplate scintillation counter with quenching correction after addition of 45 μl of microscint 40 (Canberra Packard S. A., Zürich, Switzerland) and shaking for 1 h. Inhibition curves were fitted according to the Hill equation: y=100/(1+(x/IC50)^nH), where nH=slope factor using Excel-fit 4 software (Microsoft). IC50 values were derived from the inhibition curve and the affinity constant (Ki) values were calculated using the Cheng-Prussoff equation Ki=IC50/(1+[L]/KD) where [L] is the concentration of radioligand and KD is its dissociation constant at the receptor, derived from the saturation isotherm. All experiments were performed in duplicate and the mean±standard error (SEM) of the individual Ki values was calculated.
For the compound `CN(Cc1ccc(C(F)(F)F)c(F)c1)[C@H]1CN(C(=O)CN2CCC(N3CCCCC3=O)CC2)C[C@@H]1c1ccc(Cl)c(Cl)c1` (racemic) [Example 146, 1′-(2-{(3SR,4RS)-3-(3,4-Dichloro-phenyl)-4-[(3-fluoro-4-trifluoromethyl-benzyl)-methyl-amino]-pyrrolidin-1-yl}-2-oxo-ethyl)-[1,4′]bipiperidinyl-2-one], the Ki turned out to be 14.9 nM.

`CN(Cc1ccc(C(F)(F)F)c(F)c1)[C@H]1CN(C(=O)N2CCN(S(C)(=O)=O)CC2)C[C@@H]1c1ccc(Cl)c(F)c1` (racemic) [Example 81, {(3SR,4RS)-3-(4-Chloro-3-fluoro-phenyl)-4-[(3-fluoro-4-trifluoromethyl-benzyl)-methyl-amino]-pyrrolidin-1-yl}-(4-methanesulfonyl-piperazin-1-yl)-methanone]: the Ki came out at 14.6 nM.

Take `CN(C)[C@@H]1CCN(C(=O)N2C[C@H](c3ccc(Cl)c(Cl)c3)[C@@H](N(C)Cc3ccc(C(F)(F)F)c(F)c3)C2)C1` (mixture of isomers) [Example 57, {(3SR,4RS)-3-(3,4-Dichloro-phenyl)-4-[(3-fluoro-4-trifluoromethyl-benzyl)-methyl-amino]-pyrrolidin-1-yl}-((R)-3-dimethylamino-pyrrolidin-1-yl)-methanone]: the Ki was found to be 74.8 nM.

For the compound `CN(Cc1ccc(C(F)(F)F)c(F)c1)[C@H]1CN(C(=O)CN2CCC(O)CC2)C[C@@H]1c1ccc(Cl)c(Cl)c1` (racemic) [Example 132, 1-{(3SR,4RS)-3-(3,4-Dichloro-phenyl)-4-[(3-fluoro-4-trifluoromethyl-benzyl)-methyl-amino]-pyrrolidin-1-yl}-2-(4-hydroxy-piperidin-1-yl)-ethanone], the Ki is 26.3 nM.

As for `CN(Cc1ccc(C(F)(F)F)c(F)c1)[C@H]1CN(C(=O)CCCCN2CCOCC2)C[C@@H]1c1cccc(Cl)c1` (racemic) [Example 107, 1-{(3SR,4RS)-3-(3-Chloro-phenyl)-4-[(3-fluoro-4-trifluoromethyl-benzyl)-methyl-amino]-pyrrolidin-1-yl}-5-morpholin-4-yl-pentan-1-one], the Ki was found to be 81.2 nM.

As for `CN(Cc1ccc(C(F)(F)F)c(F)c1)[C@H]1CN(C(=O)CN2CCNCC2)C[C@@H]1c1ccc(Cl)c(Cl)c1` (racemic) [Example 131, 1-{(3SR,4RS)-3-(3,4-Dichloro-phenyl)-4-[(3-fluoro-4-trifluoromethyl-benzyl)-methyl-amino]-pyrrolidin-1-yl}-2-piperazin-1-yl-ethanone], the Ki amounted to 33.4 nM.

Regarding `CN(Cc1ccc(C(F)(F)F)c(F)c1)[C@H]1CN(C(=O)N2CCOCC2)C[C@@H]1c1ccc(Cl)c(Cl)c1` (racemic) [Example 52, {(3SR,4RS)-3-(3,4-Dichloro-phenyl)-4-[(3-fluoro-4-trifluoromethyl-benzyl)-methyl-amino]-pyrrolidin-1-yl}-morpholin-4-yl-methanone], the Ki came out at 71.3 nM.

As for `CN(C)CCCN(C)CC(=O)N1C[C@H](c2ccc(Cl)c(Cl)c2)[C@@H](N(C)Cc2ccc(C(F)(F)F)c(F)c2)C1` (racemic) [Example 126, 1-{(3SR,4RS)-3-(3,4-Dichloro-phenyl)-4-[(3-fluoro-4-trifluoromethyl-benzyl)-methyl-amino]-pyrrolidin-1-yl}-2-[(3-dimethylamino-propyl)-methyl-amino]-ethanone], the Ki is 80.5 nM.

Regarding `CN(Cc1ccc(Cl)c(Cl)c1)[C@H]1CN(C(=O)N2CCN(S(C)(=O)=O)CC2)C[C@@H]1c1ccc(Cl)cc1` (racemic) [Example 19, {(3SR,4RS)-3-(4-Chloro-phenyl)-4-[(3,4-dichloro-benzyl)-methyl-amino]-pyrrolidin-1-yl}-(4-methanesulfonyl-piperazin-1-yl)-methanone], the Ki is 80.7 nM.

On to `CN(Cc1ccc(C(F)(F)F)c(F)c1)[C@H]1CN(C(=O)CCCCC(=O)c2ccccn2)C[C@@H]1c1ccc(Cl)c(Cl)c1` (racemic) [Example 95, 1-{(3SR,4RS)-3-(3,4-Dichloro-phenyl)-4-[(3-fluoro-4-trifluoromethyl-benzyl)-methyl-amino]-pyrrolidin-1-yl}-6-pyridin-2-yl-hexane-1,6-dione], for which the Ki was 24.3 nM.

Take `CC(=O)N1CCN(C(=O)N2C[C@H](c3ccc(Cl)c(Cl)c3)[C@@H](N(C)Cc3ccc(C(F)(F)F)c(F)c3)C2)CC1` (racemic) [Example 51, 1-(4-{(3SR,4RS)-3-(3,4-Dichloro-phenyl)-4-[(3-fluoro-4-trifluoromethyl-benzyl)-methyl-amino]-pyrrolidine-1-carbonyl}-piperazin-1-yl)-ethanone]: the Ki was 17.3 nM.

On to `CC(=O)N[C@@H]1CCN(CC(=O)N2C[C@H](c3ccc(Cl)c(Cl)c3)[C@@H](N(C)Cc3ccc(C(F)(F)F)c(F)c3)C2)C1` (mixture of isomers) [Example 134, N-[(R)-1-(2-{(3SR,4RS)-3-(3,4-Dichloro-phenyl)-4-[(3-fluoro-4-trifluoromethyl-benzyl)-methyl-amino]-pyrrolidin-1-yl}-2-oxo-ethyl)-pyrrolidin-3-yl]-acetamide], for which the Ki turned out to be 43.2 nM.

In the case of `CN(Cc1ccc(C(F)(F)F)c(F)c1)[C@H]1CN(C(=O)N2CCN(CCCO)CC2)C[C@@H]1c1ccc(Cl)c(Cl)c1` (racemic) [Example 66, {(3SR,4RS)-3-(3,4-Dichloro-phenyl)-4-[(3-fluoro-4-trifluoromethyl-benzyl)-methyl-amino]-pyrrolidin-1-yl}-[4-(3-hydroxy-propyl)-piperazin-1-yl]-methanone], the Ki came out at 3 nM.

Consider `CN(Cc1ccc(Cl)c(Cl)c1)[C@H]1CN(C(=O)N2CCN(S(C)(=O)=O)CC2)C[C@@H]1c1ccc(Cl)c(Cl)c1` (racemic) [Example 32], for which the Ki came to 33.3 nM.

As for `CN(Cc1ccc(C(F)(F)F)c(F)c1)[C@H]1CN(C(=O)CN2CCC(N3CCOCC3=O)CC2)C[C@@H]1c1ccc(Cl)c(Cl)c1` (racemic) [Example 145, 4-[1-(2-{(3SR,4RS)-3-(3,4-Dichloro-phenyl)-4-[(3-fluoro-4-trifluoromethyl-benzyl)-methyl-amino]-pyrrolidin-1-yl}-2-oxo-ethyl)-piperidin-4-yl]-morpholin-3-one], the Ki worked out at 13.7 nM.

On to `CN(Cc1ccc(Cl)cc1)[C@H]1CN(C(=O)N2CCN(S(C)(=O)=O)CC2)C[C@@H]1c1ccc(Cl)c(Cl)c1` (racemic) [Example 33, [(3RS,4SR)-3-[(4-Chloro-benzyl)-methyl-amino]-4-(3,4-dichloro-phenyl)-pyrrolidin-1-yl]-(4-methanesulfonyl-piperazin-1-yl)-methanone], for which the inhibition constant (Ki) is 33.6 nM.

With `CN(Cc1ccc(C(F)(F)F)cc1)[C@H]1CN(C(=O)N2CCN(S(C)(=O)=O)CC2)C[C@@H]1c1ccc(Cl)c(Cl)c1` (racemic) [Example 83, {(3SR,4RS)-3-(3,4-Dichloro-phenyl)-4-[methyl-(4-trifluoromethyl-benzyl)-amino]-pyrrolidin-1-yl}-(4-methanesulfonyl-piperazin-1-yl)-methanone], the Ki worked out at 6 nM.

For the compound `CN(Cc1ccc(C(F)(F)F)c(F)c1)[C@H]1CN(C(=O)CCCCN2CCCC2)C[C@@H]1c1ccc(Cl)c(Cl)c1` (racemic) [Example 92, 1-{(3SR,4RS)-3-(3,4-Dichloro-phenyl)-4-[(3-fluoro-4-trifluoromethyl-benzyl)-methyl-amino]-pyrrolidin-1-yl}-5-pyrrolidin-1-yl-pentan-1-one], the Ki was found to be 46.6 nM.

For the compound `C[C@H]1CN(C(=O)N2C[C@H](c3ccc(Cl)c(Cl)c3)[C@@H](N(C)Cc3ccc(C(F)(F)F)c(F)c3)C2)CCN1S(C)(=O)=O` (mixture of isomers) [Example 59, {(3SR,4RS)-3-(3,4-Dichloro-phenyl)-4-[(3-fluoro-4-trifluoromethyl-benzyl)-methyl-amino]-pyrrolidin-1-yl}-((S)-4-methanesulfonyl-3-methyl-piperazin-1-yl)-methanone], the Ki was found to be 15.4 nM.
